Assay results taken from patent US20250154173A1 (Merck Sharp & Dohme LLC, priority 2023, published 2025).

Target: T1, GST-RIPK1 (recombinant GST-RIPK1 kinase domain (residues 1-327)) (Homo sapiens, UniProt Q13546)
T1 construct: recombinant GST-RIPK1 kinase domain (residues 1-327) enzyme produced from baculovirus-transfected Sf21 cells; host or cells: baculovirus-transfected Sf21 insect cells
T1 sequence (Q13546 1-327): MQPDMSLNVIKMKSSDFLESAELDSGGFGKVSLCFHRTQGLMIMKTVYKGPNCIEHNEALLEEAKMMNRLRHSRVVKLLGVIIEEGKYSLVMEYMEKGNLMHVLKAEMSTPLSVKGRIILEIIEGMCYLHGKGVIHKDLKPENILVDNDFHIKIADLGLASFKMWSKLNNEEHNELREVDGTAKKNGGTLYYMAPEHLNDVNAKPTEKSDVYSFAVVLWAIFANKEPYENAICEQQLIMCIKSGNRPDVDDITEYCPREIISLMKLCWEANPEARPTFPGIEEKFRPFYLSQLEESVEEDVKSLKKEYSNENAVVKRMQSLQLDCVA
Assay: RIPK1-ADP-Glo Enzymatic Assay
Type: biochemical
Settings: ten-point titration, top compound concentration of 100000 nM; 25 nM GST-RIPK1, 300 μM ATP, 3 μM dephosphorylated-MBP; 30 min pre-incubation, 150 min reaction
Method: RIPK1-ADP-Glo Enzymatic Assay
The enzymatic activity of RIPK1 is measured using an assay derived from ADP-Glo kit (TMPromega), which provides a luminescent-based ADP detection system. Specifically, the ADP generated by RIPK1 kinase is proportionally detected as luminescent signals in a homogenous fashion. In this context, the assessment of the inhibitory effect of small molecules (EC50) is measured by the effectiveness of the compounds to inhibit the ATP to ADP conversion by RIPK1.
In this assay, the potency (EC50) of each compound was determined from a ten-point (1:3 serial dilution; top compound concentration of 100000 nM) titration curve using the following outlined procedure. To each well of a white ProxiPlus 384 well-plate, 30 nL of compound (1% DMSO in final assay volume of 3 μL) was dispensed, followed by the addition of 2 μL of 1× assay buffer (25 mM Hepes 7.3, 20 mM MgCl2, 50 mM NaCl, 1 mM DTT, 0.005% Tween20, and 0.02% BSA) containing 37.5 nM of GST-RIPK1 (recombinant GST-RIPK1 kinase domain (residues 1-327) enzyme produced from baculovirus-transfected Sf21 cells: MW=62 kDa). Plates were placed in an ambient temperature humidified chamber for a 30 minutes pre-incubation with compound. Subsequently, each reaction was initiated by the addition of 1 μL 1× assay buffer containing 900 μM ATP and 3 μM dephosphorylated-MBP substrate. The final reaction in each well of 3 μL consists of 25 nM of GST-RIPK1, 300 μM ATP, and 3 μM dephosphorylated-MBP. Kinase reactions were allowed to proceed for 150 minutes prior to adding ADP-Glo reagents per Promega's outlined kit protocol. Dose-response curves were generated by plotting percent effect (% product conversion; Y-axis) vs. Log 10 compound concentrations (X-axis). EC50 values were calculated using a non-linear regression, four-parameters sigmoidal dose-response model.

Row | Structure (SMILES) | EC50
1 | Cc1cccnc1CO[C@H]1C[C@]2(C1)O[C@@H]1CC[C@@H](c3cnccn3)N1C2=O [Example 20.1, (5′S,7a′R)-3-((3-methylpyridin-2-yl)methoxy)-5′-(pyrazin-2-yl)tetrahydro-3′H-spiro[cyclobutane-1,2′-pyrrolo[2,1-b]oxazol]-3′-one] | 0.664 µM
2 | O=C1N2[C@@H](CC[C@H]2c2cnccn2)O[C@]12C[C@H](Oc1ncnn3cccc13)C2 [Example 9.46, (1r,3R,5′S,7a′R)-5′-(pyrazin-2-yl)-3-(pyrrolo[2,1-f][1,2,4]triazin-4-yloxy)tetrahydro-3′H-spiro[cyclobutane-1,2′-pyrrolo[2,1-b]oxazol]-3′-one] | 0.015 µM
3 | O=C1N2[C@@H](CC[C@H]2c2ccc(F)cc2)OC12CC(Oc1nccn3ncnc13)C2 (stereo partly drawn) [Example 9.59, (5′S,7a′R)-5′-(4-fluorophenyl)-3-[([1,2,4]triazolo[1,5-a]pyrazin-8-yl)oxy]tetrahydro-3′H-spiro[cyclobutane-1,2′-pyrrolo[2,1-b][1,3]oxazol]-3′-one] | 0.0719 µM
4 | CC(OC1CC2(C1)OC1CCC(c3cc(F)cc(F)c3)N1C2=O)c1ccccc1 (single isomer, unassigned) [Example 15.2, ((1R or S),3R,5′S,7a′R)-5′-(3,5-difluorophenyl)-3-((S or R)-1-phenylethoxy)tetrahydro-3′H-spiro[cyclobutane-1,2′-pyrrolo[2,1-b]oxazol]-3′-one] | 0.07 µM
5 | O=C1N2[C@@H](CC[C@H]2c2cnccn2)O[C@]12C[C@H](Oc1ccc(F)cc1F)C2 [Example 7.1, (1r,3R,5′S,7a′R)-3-(2,4-difluorophenoxy)-5′-(pyrazin-2-yl)tetrahydro-3′H-spiro[cyclobutane-1,2′-pyrrolo[2,1-b]oxazol]-3′-one] | 0.02 µM
6 | N#CC1(c2ccc(COC3CC4(C3)OC3CC[C@@H](c5cnccn5)N3C4=O)cn2)CCC1 (stereo partly drawn) [Example 18.28, 1-[5-({[(5′S)-3′-oxo-5′-(pyrazin-2-yl)tetrahydro-3′H-spiro[cyclobutane-1,2′-pyrrolo[2,1-b][1,3]oxazol]-3-yl]oxy}methyl)pyridin-2-yl]cyclobutane-1-carbonitrile] | 0.174 µM
7 | O=C1N2C(CC[C@H]2c2cnccn2)OC12CC(OCc1cc3cncnc3s1)C2 (stereo partly drawn) [Example 18.20, (5′S)-5′-(pyrazin-2-yl)-3-[(thieno[2,3-d]pyrimidin-6-yl)methoxy]tetrahydro-3′H-spiro[cyclobutane-1,2′-pyrrolo[2,1-b][1,3]oxazol]-3′-one] | 0.022 µM
8 | O=C1N2[C@@H](CC[C@H]2c2cnccn2)O[C@]12C[C@H](OCc1ccccc1)C2 [Example 4.1, ((1r),3R,5′S,7a′R)-3-(benzyloxy)-5′-(pyrazin-2-yl)tetrahydro-3′H-spiro[cyclobutane-1,2′-pyrrolo[2,1-b]oxazol]-3′-one] | 0.049 µM
9 | O=C1N2[C@@H](CC[C@H]2c2ccc(F)cn2)O[C@]12C[C@@H](OCc1ccccc1)C2 [Example 3.1, (1s,3R,5′S,7a′R)-3-(benzyloxy)-5′-(5-fluoropyridin-2-yl)tetrahydro-3′H-spiro[cyclobutane-1,2′-pyrrolo[2,1-b]oxazol]-3′-one] | 0.108 µM
10 | O=C1N2[C@@H](CC[C@H]2c2ccc(F)cc2)O[C@]12C[C@H](Oc1cc(-c3nn[nH]n3)ccn1)C2 [Example 10.7, (1r,3R,5′S,7a′R)-3-((4-(2H-tetrazol-5-yl)pyridin-2-yl)oxy)-5′-(4-fluorophenyl)tetrahydro-3′H-spiro[cyclobutane-1,2′-pyrrolo[2,1-b]oxazol]-3′-one] | 0.027 µM
11 | Cc1nnc(-c2cc(O[C@H]3C[C@@]4(C3)O[C@@H]3CC[C@@H](c5cc(F)cc(F)c5)N3C4=O)ncn2)o1 [Example 9.53, (5′S,7a′R)-5′-(3,5-difluorophenyl)-3-((6-(5-methyl-1,3,4-oxadiazol-2-yl)pyrimidin-4-yl)oxy)tetrahydro-3′H-spiro[cyclobutane-1,2′-pyrrolo[2,1-b]oxazol]-3′-one] | 0.05 µM
12 | Cc1cn(-c2cc(OC3CC4(C3)O[C@@H]3CC[C@@H](c5cc(F)cc(F)c5)N3C4=O)ncn2)cn1 (single isomer, unassigned) [Example 9.9] | 0.475 µM
13 | O=C1N2[C@@H](CC[C@H]2c2cnccn2)O[C@]12C[C@@H](OCc1ccc3scnc3c1)C2 [Example 18.23, (1s,3S,5′S,7a′R)-3-[(1,3-benzothiazol-5-yl)methoxy]-5′-(pyrazin-2-yl)tetrahydro-3′H-spiro[cyclobutane-1,2′-pyrrolo [2,1-b][1,3]oxazol]-3′-one] | 0.027 µM
14 | O=C1N2[C@@H](CC[C@H]2c2cncc(F)c2)OC12CCC(Oc1ccccc1)CC2 (single isomer, unassigned) [Example 16.3, (1r or s),(5′S,7a′R)-5′-(5-fluoropyridin-3-yl)-4-phenoxytetrahydro-3′H-spiro[cyclohexane-1,2′-pyrrolo[2,1-b]oxazol]-3′-one] | 0.062 µM
15 | O=C1N2C(CC[C@H]2c2cnccn2)OC12CC(OCc1ccc(OC3CCOCC3)nc1)C2 (stereo partly drawn) [Example 18.57, (5′S)-3-({6-[(oxan-4-yl)oxy]pyridin-3-yl}methoxy)-5′-(pyrazin-2-yl)tetrahydro-3′H-spiro[cyclobutane-1,2′-pyrrolo[2,1-b][1,3]oxazol]-3′-one] | 0.109 µM
16 | CC(OC1CC2(C1)O[C@@H]1CC[C@@H](c3cc(F)cc(F)c3)N1C2=O)c1ncccc1F (single isomer, unassigned) [Example 12.5, (1R or S,3S or r,5′S,7a′R)-5′-(3,5-difluorophenyl)-3-((S or R)-1-(3-fluoropyridin-2-yl)ethoxy)tetrahydro-3′H-spiro[cyclobutane-1,2′-pyrrolo[2,1-b]oxazol]-3′-one] | 0.305 µM
17 | O=C1N2C(CC[C@H]2c2cnccn2)OC12CC(OCc1csc3ncccc13)C2 (stereo partly drawn) [Example 18.68, (5′S)-5′-(pyrazin-2-yl)-3-[(thieno[2,3-b]pyridin-3-yl)methoxy]tetrahydro-3′H-spiro[cyclobutane-1,2′-pyrrolo[2,1-b][1,3]oxazol]-3′-one] | 0.043 µM
18 | COc1ccc2cc(COC3CC4(C3)OC3CC[C@@H](c5cnccn5)N3C4=O)ncc2n1 (stereo partly drawn) [Example 18.81, (5′S)-3-[(2-methoxy-1,7-naphthyridin-6-yl)methoxy]-5′-(pyrazin-2-yl)tetrahydro-3′H-spiro[cyclobutane-1,2′-pyrrolo[2,1-b][1,3]oxazol]-3′-one] | 0.756 µM
19 | N#Cc1ccc(COC2CC3(C2)OC2CC[C@@H](c4cnccn4)N2C3=O)c2cccnc12 (stereo partly drawn) [Example 18.65, 5-({[(5′S)-3′-oxo-5′-(pyrazin-2-yl)tetrahydro-3′H-spiro[cyclobutane-1,2′-pyrrolo[2,1-b][1,3]oxazol]-3-yl]oxy}methyl)quinoline-8-carbonitrile] | 0.032 µM
20 | O=C1N2[C@@H](CC[C@H]2c2cc(F)cc(F)c2)OC12CC(Oc1ccccc1)C2 (single isomer, unassigned) [Example 16.1, ((1s or r),3R,5′S,7a′R)-5′-(3,5-difluorophenyl)-3-phenoxytetrahydro-3′H-spiro[cyclobutane-1,2′-pyrrolo[2,1-b]oxazol]-3′-one] | 0.03 µM
21 | N#Cc1ccnc(O[C@H]2C[C@@]3(C2)O[C@@H]2CC[C@@H](c4cc(F)cc(F)c4)N2C3=O)n1 [Example 9.20, 2-{[(1r,3R,5′S,7a′R)-5′-(3,5-difluorophenyl)-3′-oxotetrahydro-3′H-spiro[cyclobutane-1,2′-pyrrolo[2,1-b][1,3]oxazol]-3-yl]oxy}pyrimidine-4-carbonitrile] | 0.053 µM
22 | N#CC1(c2ccc(COC3CC4(C3)O[C@@H]3CC[C@@H](c5cnccn5)N3C4=O)cc2)CC1 (stereo partly drawn) [Example 20.8, 1-[4-({[(5′S,7a′R)-3′-oxo-5′-(pyrazin-2-yl)tetrahydro-3′H-spiro[cyclobutane-1,2′-pyrrolo[2,1-b][1,3]oxazol]-3-yl]oxy}methyl)phenyl]cyclopropane-1-carbonitrile] | 0.236 µM
23 | N#Cc1ncccc1O[C@H]1C[C@@]2(C1)O[C@@H]1CC[C@@H](c3ccccc3)N1C2=O [Example 9.14, 3-{[(1r,3R,5′S,7a′R)-3′-oxo-5′-phenyltetrahydro-3′H-spiro[cyclobutane-1,2′-pyrrolo[2,1-b][1,3]oxazol]-3-yl]oxy}pyridine-2-carbonitrile] | 0.139 µM
